The source of these data is patent US10966990B2, “Midazolam in flexible bags” (InfoRLife SA, priority 2018, dated 2021).

Data set [1] is described as follows: solubility study of midazolam base in aqueous solution (pH-dependent). Type of data set: physicochemical. The note with it: midazolam 2 mg/mL in a solution of 0.9% NaCl. How it is done: The solubility of midazolam is less than 0.1 mg/mL at neutral pH and it increases considerably in acidic media. A solubility study has been performed to evaluate the use of midazolam base in the proposed formulation. Since the solubility of midazolam is pH-dependent, the purpose of this study was to evaluate the pH value at which midazolam becomes soluble in aqueous solution. Midazolam at a concentration of 2 mg/mL is soluble in a solution of 0.9% NaCl when the pH reaches a value of about 3.2 pH. The solubility increases at lower pHs. The desired pH of the formulation is about from about 2.5 to about 3.5, preferably 2.8 to 3.2 and more preferably about pH 3. Sufficient acid is added to the solution to achieve the desired pH. Any pharmaceutically acid may be used. Preferably the acid is a pharmaceutically acceptable mineral acid, most preferably hydrochloric acid. If necessary a pharmaceutically acceptable base may be used to raise the pH if needed. The preferred bases are pharmaceutically acceptable inorganic bases such as sodium hydroxide and potassium hydroxide. Sodium hydroxide is the preferred base.

The conditions of data set [2]: cited from earlier work.
For data set [3] the following is noted: neutral pH; cited from earlier work.

As for `Cc1ncc2n1-c1ccc(Cl)cc1C(c1ccccc1F)=NC2` [Midazolam], the “pH value at which midazolam becomes soluble” value in data set [1] is “about 3.2 pH”. Also, the storage of bag result in data set [2] (isotonic saline IV bag, room temperature) was “can be stored overnight at room temperature”. For the same compound, the useful life in data set [2] (midazolam in lactate Ringer's solution in IV bag) is 4 h. Also, the solubility of midazolam result in data set [3] was “less than 0.1 mg/mL”.
